Structures are written as SMILES.

Assay [1] deals with T1, NIH3T3 cells expressing the full length KDR receptor (Homo sapiens, UniProt P35968).
T1 construct: NIH3T3 cells expressing the full length KDR receptor; expressed in transfected cells; host or cells: NIH3T3 cells (G418 selection)
In words: Cell mechanistic assay - Inhibition of 3T3 KDR phosphorylation. The class given is cell-based. The following applies: VEGF (30 ng / ml) for 10 minutes after 30 minutes with compound; KDR phosphotyrosine ELISA. The procedure: NIH3T3 cells expressing the full length KDR receptor were grown in DMEM (Life Technologies, Inc., Grand Island, NY) supplemented with 10% newborn calf serum, low glucose, 25 mM /L sodium pyruvate, pyridoxine hydrochloride and 0.2 mg/ ml of G418 (Life Technologies Inc., Grand Island, NY). The cells were maintained in collagen I-coated T75 flasks (Becton Dickinson Labware, Bedford, MA) in a humidified 5% CO2 atmosphere at 37°C.
Fifteen thousand cells were plated into each well of a collagen I-coated 96-well plate in the DMEM growth medium. Six hours later, the cells were washed and the medium was replaced with DMEM without serum. After overnight culture to quiesce the cells, the medium was replaced by Dulbecco's phosphate-buffered saline (Life Technologies Inc., Grand Island, NY) with 0.1% bovine albumin (Sigma Chemical Co., St Louis, MO). After adding various concentrations (0-300 nM) of test compounds to the cells in 1% final concentration of DMSO, the cells were incubated at room temperature for 30 minutes. The cells were then treated with VEGF (30 ng / ml) for 10 minutes at room temperature. Following VEGF stimulation, the buffer was removed and the cells were lysed by addition of 150 µl of extraction buffer (50 mM Tris, pH 7.8, supplemented with 10% glycerol, 50 mM BGP, 2 mM EDTA, 10 mM NaF, 0.5 mM NaVO4, and 0.3% TX-100) at 4°C for 30 minutes.
To assess receptor phosphorylation, 100 microliters of each cell lysate was added to the wells of an ELISA plate precoated with 300 ng of antibody C20 (Santa Cruz Biotechnology, Inc., Santa Cruz , CA). Following a 60-minute incubation, the plate was washed and bound KDR was probed for phosphotyrosine using an anti-phosphotyrosine mAb clone 4G10 (Upstate Biotechnology, Lake Placid, NY). The plate was washed and wells were incubated with anti-mouse IgG/HRP conjugate (Amersham International plc, Buckinghamshire, England) for 60 minutes. Wells were washed and phosphotyrosine was quantitated by addtion of 100 µl per well of 3,3',5,5' tetramethylbenzidine (Kirkegaard and Perry, TMB Microwell 1 Component peroxidase substrate) solution. Color development was arrested by the addition of 100 µl 1% HCl based stop solution (Kirkegaard and Perry, TMB 1 Component Stop Solution).
Optical densities (OD) were determined spectrophotometrically at 450 nm in a 96-well plate reader (SpectraMax 250, Molecular Devices). Background (no VEGF added) OD values were subtracted from all ODs and percent inhibition was calculated according to the equation: % Inhibition =((OD(VEGF control) - OD(with test compound)) X 100)/(OD(VEGF control) - OD(no VEGF added)) [formula]
IC50s were determined with a least squares analysis program using compound concentration versus percent inhibition. Compounds that have IC50 < 20 nM in this assay include those of Examples 2, 6, 7, 11, 15 and 16. Compounds that have IC50 values between 20 nM and 50 nM include those of examples 1, 4, 5, 8, 10, 12, 13 and 14. Those that have measured IC50 values > 50 nM include those of examples 9 and 21.

Assay [2] deals with SK-MEL2 human tumor cells that were transfected with a plasmid containing the murine VEGF gene. In words: Matrigel Angiogenesis Model (hemoglobin content of Matrigel plugs). The class given is in vivo, Mice. The following applies: 30, 100 and 300 mg/kg po sid; 12 days post-implantation; vs. vehicle control animals. As for the experimental part: Preparation of Matrigel Plugs and in vivo Phase: Matrigel® (Collaborative Biomedical Products, Bedford, MA) is a basement membrane extract from a murine tumor composed primarily of laminin, collagen IV and heparan sulfate proteoglycan. It is provided as a sterile liquid at 4° C, but rapidly forms a solid gel at 37° C.
Liquid Matrigel at 4° C was mixed with SK-MEL2 human tumor cells that were transfected with a plasmid containing the murine VEGF gene with a selectable marker. Tumor cells were grown in vitro under selection and cells were mixed with cold liquid Matrigel at a ratio of 2 X 10^6 per 0.5 ml. […]
Optical densities were determined spectrophotometrically at 600 nm in a 96-well plate reader, SpectraMax 250 Microplate Spectrophotometer System (Molecular Devices, Sunnyvale, CA). Background Lysis Buffer readings were subtracted from all wells.
Total sample hemoglobin content was calculated according to the following equation: Total Hemoglobin = (Sample Lysate Volume) x (Hemoglobin Concentration) [formula]
The average Total Hemoglobin of Matrigel samples without cells was subtracted from each Total Hemoglobin Matrigel sample with cells. Percent inhibition was calculated according to the following equation: % Inhibition =((Average Total Hemoglobin Drug-Treated Tumor Lysates) X 100)/((Average Total Hemoglobin Non-Treated Tumor Lysates)) [formula]

T1 sequence (P35968 20-1356): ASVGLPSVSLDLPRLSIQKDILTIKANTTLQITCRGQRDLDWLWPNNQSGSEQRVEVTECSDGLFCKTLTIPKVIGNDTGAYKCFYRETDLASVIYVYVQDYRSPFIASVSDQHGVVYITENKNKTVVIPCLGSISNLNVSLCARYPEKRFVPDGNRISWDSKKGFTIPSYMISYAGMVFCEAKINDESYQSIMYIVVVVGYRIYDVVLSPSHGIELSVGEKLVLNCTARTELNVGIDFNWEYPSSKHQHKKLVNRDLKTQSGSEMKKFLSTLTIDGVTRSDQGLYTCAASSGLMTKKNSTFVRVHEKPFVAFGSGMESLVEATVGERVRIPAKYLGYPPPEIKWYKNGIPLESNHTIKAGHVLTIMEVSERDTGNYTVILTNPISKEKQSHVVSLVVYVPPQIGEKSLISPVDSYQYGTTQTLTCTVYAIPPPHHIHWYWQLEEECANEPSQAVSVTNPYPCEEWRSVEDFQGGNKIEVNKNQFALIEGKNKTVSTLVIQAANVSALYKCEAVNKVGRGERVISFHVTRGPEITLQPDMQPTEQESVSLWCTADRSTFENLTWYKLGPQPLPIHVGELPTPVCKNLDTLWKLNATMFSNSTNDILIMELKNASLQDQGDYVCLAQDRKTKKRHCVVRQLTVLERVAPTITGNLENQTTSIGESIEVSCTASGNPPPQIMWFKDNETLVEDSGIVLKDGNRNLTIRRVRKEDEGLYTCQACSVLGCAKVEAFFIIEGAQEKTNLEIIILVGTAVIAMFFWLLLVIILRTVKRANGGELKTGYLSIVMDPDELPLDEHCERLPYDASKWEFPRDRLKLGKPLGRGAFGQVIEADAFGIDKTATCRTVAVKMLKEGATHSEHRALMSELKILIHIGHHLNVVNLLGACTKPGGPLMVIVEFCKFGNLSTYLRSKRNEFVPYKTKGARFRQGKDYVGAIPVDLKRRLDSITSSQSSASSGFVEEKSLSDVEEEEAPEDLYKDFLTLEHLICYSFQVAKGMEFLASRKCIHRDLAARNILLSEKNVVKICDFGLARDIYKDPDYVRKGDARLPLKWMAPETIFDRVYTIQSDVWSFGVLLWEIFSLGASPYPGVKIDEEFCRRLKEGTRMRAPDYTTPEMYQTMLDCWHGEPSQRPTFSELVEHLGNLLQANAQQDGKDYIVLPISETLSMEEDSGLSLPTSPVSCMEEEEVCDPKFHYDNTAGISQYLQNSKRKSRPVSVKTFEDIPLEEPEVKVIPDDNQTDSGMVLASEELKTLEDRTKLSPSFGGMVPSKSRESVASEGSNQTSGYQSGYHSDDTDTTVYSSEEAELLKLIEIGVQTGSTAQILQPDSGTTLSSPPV

On to `CNC(=O)c1cc(Cc2nnc(Nc3ccc(Cl)cc3)c3ccccc23)ccn1` [Example 1, 4-[4-(4-Chlorophenylamino)phthalazin-1-ylmethyl]pyridin-2-yl carboxylic acid methylamide], for which the IC50 in assay [1] was 20 to 50 nM. In addition, the “inhibition of total hemoglobin content of the Matrigel samples” value in assay [2] was greater than 50%.

The IC50 is the concentration at which inhibition is half-maximal.

These data come from patent publication EP1208096B1, “SUBSTITUTED PYRIDAZINES AND FUSED PYRIDAZINES WITH ANGIOGENESIS INHIBITING ACTIVITY” (Bayer Corporation, priority 1999, dated 2001).
